The record followed here is patent US20250092003A1, “LIPID COMPOUND, COMPOSITION CONTAINING SAME AND USE” (SOUTH CHINA UNIVERSITY OF TECHNOLOGY, priority 2022, published 2025).

In assay [1] the test system is melanoma (B16F10-Luc) cell line capable of stably expressing firefly luciferase (Luc). The assay is described as follows: siLuc transfection by lipid nanoparticles into B16F10-Luc cells, firefly luciferase expression. Type of assay: cell-based. To be noted: for siLuc transfection efficiency: lipid nanoparticles (lipid compound:DSPC:cholesterol:DSPE-PEG 38:10:50:2), siRNA 50 ng/well, N/P ratios 4:1, 8:1 and 16:1, 24 h after transfection.
Experimental: B16F10-Luc cells were inoculated into a 96-well cell culture plate. On the next day, transfection was performed when the cells grew to about 80%.
The mother solutions were stored in a refrigerator at −20° C., diluted as needed during use, and then mixed at a molar ratio of 38:10:50:2 (lipid compounds:DSPC:cholesterol:DSPE-PEG). The siLuc was dissolved in a citrate buffer solution (pH-4), where a volume of the citrate buffer solution was two times the volume of an ethanol-lipid mixture obtained above. Finally, the citrate buffer solution containing siLuc (pH=4) and the ethanol-lipid mixture were quickly and fully mixed and then shaken and incubated at room temperature for 30 min for self-assembly to form lipid nanoparticles. The assembled lipid nanoparticles were added to the 96-well cell culture plate containing the B16F10-Luc for transfection, respectively. Before the transfection, a culture solution in the culture plate was sucked out, and 80 μL of a new culture medium was added, where an added amount of the siRNA was 50 ng/well. Nitrogen-phosphorus ratios (N/P ratio) of the protonable lipid compounds to the siRNA were 4:1, 8:1 and 16:1, respectively.
Positive control group: The siLuc was transfected by Lipo2000, a commercial transfection reagent. Transfection was performed according to an operating instruction of the Lipo2000. 50 ng of the siLuc was added to 5 μL of Opti-MEM, and 0.3 μL of the Lipo2000 was added to another 50 μL of Opti-MEM. Finally, an siRNA Opti-MEM solution was added to a Lipo2000 Opti-MEM solution, evenly mixed, incubated at room temperature for 15 min, and then added to a 96-well cell culture plate. Before the transfection, a culture solution in the culture plate was sucked out, and 80 μL of a new culture medium was added, where an added amount of the siRNA was 50 ng/well.
Negative control group: Only the B16F10-Luc cells were used without transfection.
After the transfection was performed for 24 h, the cells were lysed and subjected to centrifugation to remove cell debris and contents, a supernatant was taken, a firefly luciferase substrate was added, and an expression amount of firefly luciferase was determined so as to compare the siLuc transfection efficiency of the synthesized lipid compounds.
The mother solutions were stored in a refrigerator at −20° C., diluted as needed during use, and then mixed at a molar ratio of 38:10:50:2 (lipid compounds:DSPC:cholesterol:DSPE-PEG). The siLuc was dissolved in a citrate buffer solution (pH=4), where a volume of the citrate buffer solution was two times the volume of an ethanol-lipid mixture obtained above. […]

For another assay, the system named is 293T cell line. In words: plasmid DNA (pDNA-GFP-Luc) transfection by lipid nanoparticles into 293T cells. Type of assay: cell-based. To be noted: pDNA-GFP-Luc 80 ng/well, N/P ratios 8:1, 16:1 and 32:1, 48 h after transfection.

`CCCCCCCCCCCC(=O)OCC(O)CN(CCCN(C)C)CC(O)COC(=O)CCCCCCCCCCC` (centres unmarked) [A1-C12]: in assay [1], the siLuc transfection efficiency entry is “about 95%”. Still for that read-out and setting: the entry for `CCCCCCCCCCCC(=O)OCC(O)CN(CCCN1CCCC1)CC(O)COC(=O)CCCCCCCCCCC` (centres unmarked) [A2-C12] is “about 95%”; for `CCCCCCCCCCCCCCCC(=O)OCC(O)CN(CCCN1CCCC1)CC(O)COC(=O)CCCCCCCCCCCCCCC` (centres unmarked) [A2-C16] it is “about 95%”. For `CCCCCCCCCCCC(=O)OCC(O)CN(CCN(CCN(CC(O)COC(=O)CCCCCCCCCCC)CC(O)COC(=O)CCCCCCCCCCC)CCN(CC(O)COC(=O)CCCCCCCCCCC)CC(O)COC(=O)CCCCCCCCCCC)CC(O)COC(=O)CCCCCCCCCCC` (centres unmarked) [A12-C12], the “inhibition of gene expression of the firefly luciferase” value in assay [1] (lipid nanoparticles with siLuc, N/P ratios 4:1 to 32:1, 24 h after transfection) is “almost completely inhibited”. Further, the “plasmid transfection efficiency (firefly luciferase expression) compared with PEI” value in the assay on 293T cell line is listed as “equivalent to that of the commercial reagent PEI”.
